Test results taken from BindingDB's records for doi:10.1007/bf00178951 (Sandoz Pharma, 1994).

Biological target: G_PROTEIN_RECEP_F1_2 domain-containing protein (Sus scrofa, UniProt I3LCE8)
Sequence (I3LCE8 whole entry): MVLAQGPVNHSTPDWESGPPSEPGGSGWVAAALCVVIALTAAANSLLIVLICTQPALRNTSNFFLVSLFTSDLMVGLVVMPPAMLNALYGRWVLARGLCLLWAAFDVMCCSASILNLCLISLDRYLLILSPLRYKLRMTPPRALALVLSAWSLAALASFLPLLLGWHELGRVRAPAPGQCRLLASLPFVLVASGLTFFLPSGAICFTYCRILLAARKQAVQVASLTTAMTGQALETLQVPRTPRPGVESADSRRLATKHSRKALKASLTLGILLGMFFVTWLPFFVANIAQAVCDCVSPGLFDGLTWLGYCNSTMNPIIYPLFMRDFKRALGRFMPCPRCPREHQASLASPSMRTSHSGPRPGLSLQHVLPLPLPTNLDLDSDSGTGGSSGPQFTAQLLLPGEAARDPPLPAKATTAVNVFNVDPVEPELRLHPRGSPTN

O=C(c1ccc(F)cc1)C1CCN(CCn2c(=O)[nH]c3ccccc3c2=O)CC1 [3-(2-{4-[(4-fluorophenyl)carbonyl]piperidin-1-yl}ethyl)-1,2,3,4-tetrahydroquinazoline-2,4-dione]
Ki: > 10 µM
